As a reminder, the inhibition is the change of the read-out against control, counted positive when it falls.

Molecules are shown by their SMILES.

The values below come from US4904666A, “Pyrazolo(3,4-d)pyrimidine compounds, compositions and method of use” (Boehringer Mannheim GmbH, priority 1987, dated 1990).

The experiment deals with passively sensitized strip of pulmonary parenchyma (guinea pig). As to the kind of experiment: inhibition of antigen-induced constriction of passively sensitized guinea pig pulmonary parenchyma strips in vitro (organ bath). It is filed as cell-based, guinea pig (Pirbright-White). Conditions: Cavia porcellus, 20 min; Superfusion; Concentration 10/μM (so in the source); test substance preincubated 20 minutes at 37° C., then ovalbumin constriction; percentage reduction of constriction amplitude vs untreated control constrictions. From the text: Activity of the inventive compounds was shown by the following testing in vitro. […] The method employed was as described herewith:
Pirbright-White guinea pigs were stunned by a blow to the neck and bled. The lungs were flushed largely free of blood in situ with Krebs' buffer, pH 7.4.
Then the lung was removed, cut into strips (approx. 20×4×4 mm) and the strips were passively sensitized for one hour at room temperature with a 1:50 dilution of a homologous anti-ovalbumin antiserum and then washed once with Krebs' buffer.
The antiserum had previously been produced as described by Davies et al., (Quantitative studies on anaphylaxis in guinea pigs passively sensitized with homologous antibody. Inter. Arch. Allergy 41, 648-654 (1971)) in guinea pigs of the same strain by repeated injection of ovalbumin (2×crystallized) with the addition of complete Freund's adjuvant (Until it was used, the antiserum was stored undiluted at -18° C.).
Then the lung strips were fixed singly with one end to the bottom of 10-milliliter organ baths, and with the upper end to isometric measuring devices for the recording of the constrictions of the lung strips through an amplifier on a plotter. The tenseron was adjusted to 1.2 g weight.
Then the baths were filled with Krebs' buffer and continually gassed at 37° C. with O2 (95%) and CO2 (5%).
After a 30-minute equilibration phase, histamine control spasms were produced in order to establish the reactivity of the lung specimens, washed, then the test substance was preincubated for 20 minutes at 37° C., and the ovalbumin constriction was produced.
The inhibiting action of the compounds according to the invention was expressed as percentage reduction of the constriction amplitude of the "specimens with the test substance" in proportion to the "untreated control constrictions."
As to `CCOC(=O)c1cccc(CN(c2ncnc3[nH]ncc23)C2CCCC2)c1` [Example 2g, 4-[N--(3-ethoxycarbonylbenzyl)-cyclopentylamino]-1H--pyrazolo[3,4-d]pyrimidine], the inhibition at 10 µM was 40%.

Regarding `COc1cccc(CN(c2ncnc3[nH]ncc23)C2CCCC2)c1` [Example 2d, 4-[N--(3-methoxybenzyl)-cyclopentylamino]-1H--pyrazolo[3,4-d]pyrimidine], the inhibition at 10 µM worked out at 36%.

For the compound `Clc1ccc(Cl)c(CN(c2ncnc3[nH]ncc23)C2CCCC2)c1` [Example 2j, 4-[N--(2,5-dichlorobenzyl)-cyclopentylamino] -1H--pyrazolo[3,4-d]pyrimidine], the inhibition at 10 µM was 29%.

As for `c1coc(CN(c2ncnc3[nH]ncc23)C2CCCC2)c1` [Example 2o, 4-[N--(2-furylmethyl)-cyclopentylamino]-1H--pyrazolo[3,4-d]pyrimidine], the inhibition at 10 µM is 39%.

With `Cc1ccc(Cl)cc1CN(c1ncnc2[nH]ncc12)C1CCCC1` [Example 2l, 4-[N--(5-chloro-2-methylbenzyl)-cyclopentylamino]-1H--pyrazolo[3,4-d]pyrimidine], the inhibition at 10 µM amounted to 32%.

Take `c1csc(CN(c2ncnc3[nH]ncc23)C2CCCC2)c1` [Example 2p, 4-[N--(thiophen-2-ylmethyl)-cyclopentylamino]-1H--pyrazolo[3,4-d]pyrimidine]: the inhibition at 10 µM turned out to be 37%.

Consider `Clc1ccc(CN(c2ncnc3[nH]ncc23)C2CCCC2)cc1Cl` [Example 2k, 4-[N--(3,4-dichlorobenzyl)-cyclopentylamino]-1H--pyrazolo[3,4-d]pyrimidine], for which the inhibition at 10 µM amounted to 32%.

With `OCC(O)Cn1ncc2c(N(Cc3cccc(C(F)(F)F)c3)C3CCCC3)ncnc21` (stereo not shown) [Example 4b, 4-[N--(3-trifluoromethylbenzyl)-cyclopentylamino]-1-(2,3-dihydroxypropyl)-1H--pyrazolo[3,4-d]pyrimidine], the inhibition at 10 µM amounted to 36%.

As to `N#Cc1cccc(CN(c2ncnc3[nH]ncc23)C2CCCC2)c1` [Example 2i, 4-[N--(3-cyanobenzyl)-cyclopentylamino]-1H--pyrazolo[3,4-d]pyrimidine], the inhibition at 10 µM turned out to be 35%.

Consider `Cc1ccc(C)c(CN(c2ncnc3[nH]ncc23)C2CCCC2)c1` [Example 2n, 4-[N--(2,5-dimethylbenzyl)-cyclopentylamino]-1H--pyrazolo[3,4-d]pyrimidine], for which the inhibition at 10 µM amounted to 32%.
